Data on 22 compounds can be found in patent US9120749B2, “Quinoline derivatives and MELK inhibitors containing the same” (ONCOTHERAPY SCIENCE, INC., priority 2010, dated 2015).

Each structure is given as a SMILES string. Like-named read-outs stand apart in the source and are kept apart here.

The target of one experiment is MELK (Homo sapiens, UniProt Q14680). The experiment can be described thus: Kinase assay: MELK activity, phosphorylation of FITC-labeled histone H3 peptide measured by IMAP fluorescence polarization. The experiment is classed as biochemical. In a few lines: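 Substrate is FITC-labeled histone H3 peptide. Compounds come from a 12.5 mM DMSO stock, diluted so assay DMSO is 1%. The stop step adds threefold-volume progressive binding solution, followed by 0.5 h at room temperature and an FP read.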
Sequence of MELK (Q14680 whole entry, looked up): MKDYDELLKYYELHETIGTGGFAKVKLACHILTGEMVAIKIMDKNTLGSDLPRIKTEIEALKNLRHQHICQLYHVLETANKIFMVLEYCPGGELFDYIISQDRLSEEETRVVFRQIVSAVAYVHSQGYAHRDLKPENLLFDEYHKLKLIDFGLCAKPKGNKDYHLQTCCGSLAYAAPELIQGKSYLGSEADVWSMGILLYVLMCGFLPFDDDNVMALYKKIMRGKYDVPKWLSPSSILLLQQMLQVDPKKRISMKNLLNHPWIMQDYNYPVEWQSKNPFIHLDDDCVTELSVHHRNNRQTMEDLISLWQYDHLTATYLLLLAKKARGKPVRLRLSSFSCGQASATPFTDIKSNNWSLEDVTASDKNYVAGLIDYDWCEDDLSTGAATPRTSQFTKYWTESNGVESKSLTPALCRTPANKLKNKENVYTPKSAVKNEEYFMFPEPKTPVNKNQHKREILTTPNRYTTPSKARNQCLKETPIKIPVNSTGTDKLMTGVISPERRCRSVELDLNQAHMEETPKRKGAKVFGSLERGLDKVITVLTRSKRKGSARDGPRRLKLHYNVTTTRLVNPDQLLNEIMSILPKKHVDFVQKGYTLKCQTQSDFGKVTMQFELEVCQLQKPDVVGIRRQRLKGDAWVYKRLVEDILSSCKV

Another experiment relates to T47D cells. The experiment can be described thus: Cell-based assay: anti-proliferative activity, Cell Counting Kit-8, 72 hours (T47D). The conditions noted are these: Homo sapiens, T47D, 72 h. The method, boiled down:
(§1)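 IC50 values come from CCK-8 growth measurements taken 72 hours post-treatment of plated cells with test compounds. Expression of MELK across the panel was assessed through immunoblot of unfractionated lysates.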

The subject of a further experiment is A549 cells. The experiment can be described thus: Cell-based assay: anti-proliferative activity, Cell Counting Kit-8, 72 hours (A549). Particulars: Homo sapiens, A549, 72 h, 72 hours. The method, boiled down:
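A549 cells seeded in 96-well plates and exposed to candidate inhibitors for 72 hours. Growth measured with Cell Counting Kit-8; IC50 values calculated from the dose response.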

A further experiment relates to HT-1197 cells. The experiment can be described thus: Cell-based assay: anti-proliferative activity, Cell Counting Kit-8, 72 hours (HT-1197, negative control without MELK expression). Particulars: Homo sapiens, HT1197, 72 h, HT1197 cells (negative control, no MELK expression), 72 hours. The method, boiled down: as §1
The next experiment has as its system DU4475 cells. The experiment can be described thus: Cell-based assay: anti-proliferative activity, Cell Counting Kit-8, 72 hours (DU4475). Particulars: Homo sapiens, DU-4475, 72 h.
The mark [1] stands for this setting: 50 micro-M ATP, FITC-labeled histone H3 peptide substrate, IMAP fluorescence polarization, read-out: IC50 (μM) (kinase assay).
[2] abbreviates: read-out: IC50 (μM) (kinase assay).

In the case of `O=C(c1cnc2ccc(-c3cc(F)c(O)c(Cl)c3)cc2c1N1CCN(CCN2CCCC2)C(=O)C1)C1CC1` [Example 440, 4-(6-(3-chloro-5-fluoro-4-hydroxyphenyl)-3-(cyclopropanecarbonyl)quinolin-4-yl)-1-(2-(pyrrolidin-1-yl)ethyl)piperazin-2-one], the IC50 came out at 0.0044 µM at MELK (setting [1]), 1.1 µM in the experiment on T47D cells, 5.1 µM with A549 cells and 10 µM with HT-1197 cells.
As to `CN(C)CC(=O)N1CCN(c2c(C(=O)C3CC3)cnc3ccc(-c4ccc(O)c(Cl)c4)cc23)CC1` [Example 441, 1-(4-(6-(3-chloro-4-hydroxyphenyl)-3-(cyclopropanecarbonyl)quinolin-4-yl)piperazin-1-yl)-2-(dimethylamino)ethanone], the concentration for half-maximal inhibition (IC50) at MELK (setting [1]) was found to be 0.004 µM; with T47D cells, 0.63 µM; with A549 cells, 0.54 µM; in the experiment with HT-1197 cells, 46 µM.
For `CN(C)CC(=O)N1CCN(c2c(C(=O)C3CC3)cnc3ccc(-c4cc(F)c(O)c(Cl)c4)cc23)CC1` [Example 442, 1-(4-(6-(3-chloro-5-fluoro-4-hydroxyphenyl)-3-(cyclopropanecarbonyl)quinolin-4-yl)piperazin-1-yl)-2-(dimethylamino)ethanone], the IC50 was found to be 0.0035 µM on MELK (setting [1]), 0.74 µM in the experiment with T47D cells, 1.5 µM with A549 cells and 5.5 µM with HT-1197 cells.
In the same order, the values of `CN1CCCC1c1ccc(Nc2c(C(=O)C3CC3)cnc3ccc(-c4cc(F)c(O)c(Cl)c4)cc23)nc1` (centres unmarked) [Example 443] are 0.043 µM, 7.1 µM, 6.6 µM and 10 µM.
In the same order, the values of `CN1CCCC1c1ccc(Nc2c(C(=O)C3CC3)cnc3ccc(-c4cc(Cl)c(O)c(Cl)c4)cc23)nc1` (centres unmarked) [Example 445] are 0.022 µM, 7.5 µM, 4.1 µM and 10 µM.
With `CN(C)[C@H]1CC[C@H](Nc2c(C#N)cnc3ccc(-c4cc(F)c(O)c(Cl)c4)cc23)CC1` [Example 446], the IC50 was 0.0027 µM at MELK (setting [1]), 0.61 µM in the experiment with T47D cells, 8.4 µM in the experiment with A549 cells and 10 µM in the experiment with HT-1197 cells.
In the same order, the values of `CN(C)CC1CCN(c2c(C(=O)C3CC3)cnc3ccc(-c4ccc5cc(O)ccc5c4)cc23)CC1` [Example 449] are 0.014 µM, 1.8 µM, 0.64 µM and 3.3 µM.
For the compound `O=C(c1cnc2ccc(-c3cc(Cl)c(O)c(Cl)c3)cc2c1-c1ccc(NCCN2CCOCC2)nc1)C1CC1` [Example 450], the IC50 at MELK (setting [1]) is 0.018 µM; in the experiment on T47D cells it was 1.8 µM; with A549 cells, 4.6 µM; in the experiment with HT-1197 cells, 12 µM.
For `CN(C)CCNC(=O)c1ccc(-c2c(C(=O)C3CC3)cnc3ccc(-c4cc(Cl)c(O)c(Cl)c4)cc23)cc1` [Example 451], the IC50 at MELK (setting [1]) came to 0.0025 µM; in the experiment with T47D cells, 0.68 µM; in the experiment on A549 cells it was 3.8 µM; with HT-1197 cells it was 17 µM.
`O=C(c1cnc2ccc(-c3cc(Cl)c(O)c(Cl)c3)cc2c1-c1ccc(CN2CCCC2)cc1)C1CC1` [Example 452]: the IC50 is 0.0026 µM on MELK (setting [1]), 0.55 µM in the experiment on T47D cells, 1.6 µM with A549 cells and 10 µM in the experiment with HT-1197 cells.
For `CN(C)CC1CCN(c2c(C(=O)C3CC3)cnc3ccc(-c4ccc5[nH]ccc5c4)cc23)CC1` [Example 453], the IC50 at MELK (setting [1]) was 0.094 µM; with T47D cells, 1.2 µM; in the experiment on A549 cells, 0.48 µM; in the experiment on HT-1197 cells, 2.3 µM.
In the same order, the values of `CN(C)CC1CCN(c2c(C(=O)C3CC3)cnc3ccc(-c4ccc(O)c(C(F)(F)F)c4)cc23)CC1` [Example 454] are 0.014 µM, 4 µM, 1.3 µM and 5.3 µM.
In the same order, the values of `CN(C)CC(=O)N1CC2CC1CN2c1c(C(=O)C2CC2)cnc2ccc(-c3cc(F)c(O)c(Cl)c3)cc12` (centres unmarked) [Example 455] are 0.069 µM, 12 µM, 37 µM and 60 µM.
As for `COc1cc(-c2ccc3ncc(C(=O)C4CC4)c(N4C[C@@H]5C[C@H]4CN5C(=O)CN(C)C)c3c2)cc(Cl)c1O` [Example 456], the IC50 stood at 0.0078 µM at MELK, 3.8 µM in the experiment on T47D cells, 4.2 µM with A549 cells and 29 µM in the experiment with HT-1197 cells.
Turning to `O=C(c1cnc2ccc(-c3cc(Cl)c(O)c(Cl)c3)cc2c1-c1ccc(N2CCNCC2)nc1)C1CC1` [Example 459], the IC50 is 0.0091 µM at MELK (setting [1]), 0.83 µM in the experiment with T47D cells, 1.9 µM with A549 cells and 10 µM in the experiment with HT-1197 cells.
For the compound `COc1cc(-c2ccc3ncc(C(=O)C4CC4)c(N[C@H]4CC[C@H](CN5CCC(O)C5)CC4)c3c2)cc(Cl)c1O` (some centres unmarked) [Example 630], the IC50 worked out at 0.0023 µM on MELK (setting [2]); 0.41 µM in the experiment with T47D cells; 0.19 µM in the experiment on A549 cells; 3.6 µM with HT-1197 cells; 0.17 µM with DU4475 cells.
In the case of `O=C(c1cnc2ccc(-c3cc(F)c(O)c(Cl)c3)cc2c1N[C@H]1CC[C@H](CN2CCC(O)C2)CC1)C1CC1` (stereo partly drawn) [Example 631, (6-(3-chloro-5-fluoro-4-hydroxyphenyl)-4-((trans-4-((3-hydroxypyrrolidin-1-yl)methyl)cyclohexyl)amino)quinolin-3-yl)(cyclopropyl)methanone], the IC50 on MELK (setting [2]) stood at 0.0021 µM; in the experiment with T47D cells it was 0.074 µM; in the experiment on A549 cells, 0.17 µM; with HT-1197 cells, 0.85 µM; in the experiment on DU4475 cells, 0.055 µM.
Take `CN1CCN(C[C@H]2CC[C@H](Nc3c(C(=O)C4CC4)cnc4ccc(-c5cc(F)c(O)c(Cl)c5)cc34)CC2)CC1` [Example 636]: the IC50 with T47D cells is 0.16 µM; in the experiment on A549 cells, 0.2 µM; in the experiment on HT-1197 cells it was 0.94 µM; in the experiment on DU4475 cells it was 0.18 µM.
In the same order, the values of `COc1cc(-c2ccc3ncc(C(C)=O)c(Nc4ccc(CN5CCN(C)CC5)cc4)c3c2)cc(Cl)c1O` [Example 653, 1-(6-(3-chloro-4-hydroxy-5-methoxyphenyl)-4-(4-((4-methylpiperazin-1-yl)methyl)phenylamino)quinolin-3-yl)ethanone] are 1.3 µM, 0.5 µM, 1.9 µM and 0.32 µM.
For the compound `CN(C)C1CCN(C[C@H]2CC[C@H](Nc3c(C(=O)C4CC4)cnc4ccc(-c5cc(Cl)c(O)c(Cl)c5)cc34)CC2)C1` (some centres unmarked) [Example 663], the IC50 amounted to 0.32 µM in the experiment on T47D cells, 0.22 µM with A549 cells, 4.6 µM in the experiment on HT-1197 cells and 0.17 µM in the experiment on DU4475 cells.
For the compound `CN(C)C1CCN(Cc2ccc(Nc3c(C(=O)C4CC4)cnc4ccc(-c5cc(Cl)c(O)c(Cl)c5)cc34)cc2)C1` (centres unmarked) [Example 694, cyclopropyl(6-(3,5-dichloro-4-hydroxyphenyl)-4-(4-((3-(dimethylamino)pyrrolidin-1-yl)methyl)phenylamino)quinolin-3-yl)methanone], the IC50 in the experiment on T47D cells came to 0.41 µM; with A549 cells, 0.15 µM; with HT-1197 cells it was 7.5 µM; with DU4475 cells, 0.12 µM.
On to `CC(=O)c1cnc2ccc(-c3cc(Cl)c(O)c(Cl)c3)cc2c1N[C@H]1CC[C@H](CCN(C)C)CC1` [Example 739, 1-(6-(3,5-dichloro-4-hydroxyphenyl)-4-((trans-4-(2-(dimethylamino)ethyl)cyclohexyl)amino)quinolin-3-yl)ethanone], for which the IC50 in the experiment on T47D cells is 0.14 µM; in the experiment with HT-1197 cells it was 4 µM; in the experiment with DU4475 cells, 0.099 µM.
